{
  "source": "ChEMBL document CHEMBL3526000",
  "about": "(Drug Metab Dispos, 2012)",
  "type_in_all_cases": "ADME",
  "key": {"[1]": {"molecular_target": "T1, UDP-glucuronosyltransferase 1A4 (Homo sapiens, UniProt P22310)", "T1 sequence (P22310 whole entry)": "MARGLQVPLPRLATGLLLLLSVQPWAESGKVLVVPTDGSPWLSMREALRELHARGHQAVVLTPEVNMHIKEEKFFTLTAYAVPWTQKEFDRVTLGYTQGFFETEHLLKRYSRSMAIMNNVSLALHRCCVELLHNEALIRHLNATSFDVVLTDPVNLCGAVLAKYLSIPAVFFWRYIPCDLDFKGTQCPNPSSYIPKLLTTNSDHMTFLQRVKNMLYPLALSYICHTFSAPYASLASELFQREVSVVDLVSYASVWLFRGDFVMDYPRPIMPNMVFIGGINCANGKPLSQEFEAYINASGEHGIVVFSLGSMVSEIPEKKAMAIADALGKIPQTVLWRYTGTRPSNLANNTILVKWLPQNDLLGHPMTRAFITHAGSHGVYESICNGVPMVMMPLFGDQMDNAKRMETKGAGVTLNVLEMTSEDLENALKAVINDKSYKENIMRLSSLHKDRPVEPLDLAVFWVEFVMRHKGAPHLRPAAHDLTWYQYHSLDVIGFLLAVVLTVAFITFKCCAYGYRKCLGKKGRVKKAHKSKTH", "assay": "Drug metabolism assessed as UGT1A4 activity in human liver microsome assessed as of N-glucuronidation at 25 to 200 uM incubated for 60 mins by LC-MS/MS analysis", "details": "microsomes, 1 h"}, "[2]": {"molecular_target": "T2, UDP-glucuronosyltransferase 2B7 (Homo sapiens, UniProt P16662)", "T2 sequence (P16662 whole entry)": "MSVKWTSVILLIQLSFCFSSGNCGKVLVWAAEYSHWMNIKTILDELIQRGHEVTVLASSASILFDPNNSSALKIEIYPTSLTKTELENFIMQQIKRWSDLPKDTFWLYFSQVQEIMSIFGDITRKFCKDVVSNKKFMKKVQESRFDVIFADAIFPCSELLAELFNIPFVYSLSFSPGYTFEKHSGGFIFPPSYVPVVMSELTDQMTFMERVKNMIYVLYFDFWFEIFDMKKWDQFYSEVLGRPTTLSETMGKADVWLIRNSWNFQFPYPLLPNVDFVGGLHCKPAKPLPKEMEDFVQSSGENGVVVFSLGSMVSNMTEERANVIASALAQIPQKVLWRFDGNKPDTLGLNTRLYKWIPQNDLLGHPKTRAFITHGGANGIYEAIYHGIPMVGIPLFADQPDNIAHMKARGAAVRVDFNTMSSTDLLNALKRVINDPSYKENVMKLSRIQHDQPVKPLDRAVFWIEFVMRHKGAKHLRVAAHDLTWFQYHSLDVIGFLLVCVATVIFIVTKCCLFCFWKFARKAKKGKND", "assay": "Drug metabolism assessed as UGT2B7 activity in human liver microsome assessed as of O-glucuronidation at 25 to 200 uM incubated for 60 mins by LC-MS/MS analysis", "details": "microsomes, 1 h"}, "Liver microsome": {"tested_on": "Liver microsome", "assay": "Drug metabolism assessed as Sprague-Dawley rat liver microsomes assessed as compound formation treated with at 100 uM haloperidol by LC-MS/MS analysis"}},
  "data": [
    {"compound": "CN1CCN(CCCN2c3ccccc3Sc3ccc(C(F)(F)F)cc32)CC1.Cl", "values": [
      {"measurement": "Drug metabolism", "setting": "[1]", "value": 0.26, "unit": "nmol/min/mg"}
    ]},
    {"compound": "Cc1cn([C@H]2C[C@H](N=[N+]=[N-])[C@@H](CO)O2)c(=O)[nH]c1=O", "note": "[ZIDOVUDINE]", "values": [
      {"measurement": "Drug metabolism", "setting": "[2]", "value": 0.14, "unit": "nmol/min/mg"}
    ]},
    {"compound": "O=C(CCCN1CCC(O[C@@H]2O[C@H](C(=O)O)[C@@H](O)[C@H](O)[C@H]2O)(c2ccc(Cl)cc2)CC1)c1ccc(F)cc1", "values": [
      {"measurement": "Drug metabolism", "setting": "Liver microsome", "value": "metabolite_detected"}
    ]}
  ]
}
